Test system: MDA435 breast cancer cells
Test: Ratio Raman imaging of drug uptake and distribution in a single living cell
Format: cell-based
Procedure: Raman imaging of the cell-drug interactions consists of several steps. First, the Raman spectrum of the drug is measured. From the Raman spectrum, the locations and relative intensities of the Raman peaks (or Raman modes) is determined. The combination of the multiple Raman peaks and their relative intensities provides a unique fingerprint of the drug. In the preferred embodiment, the Raman spectrum of the anticancer drug taxol was measured as illustrated in FIG. 1. From the spectrum the most significant Raman mode is 1002 cm^−1.
In the preferred embodiment the Raman signal of a breast tumor cell was studied and the Raman spectrum was measured. […] The laser beam was focused in the cell cytoplasm and nucleus areas to determine if there was any difference in their spectra. Each measurement was 120 seconds long. FIGS. 2 and 3 illustrate the Raman spectra of the cytoplasm and nucleus of the breast tumor cell, respectively. […]
The acquired Raman images are then processed by smoothing noises, de-blurring, and removing the intensity contributed from the fluorescence. […]
The restored Raman signal still contained the non-uniform illumination effect and fluorescent contribution, illustrated as follows: s(x,y)=K(x,y)·i(x,y)·t+Ko(x,y)·i(x,y)·t. From the Raman spectra illustrated in FIGS. 1-3, Raman peaks are riding on a broadband baseline that is contributed from the fluorescence. […]

For `CC(=O)O[C@H]1C(=O)[C@@]2(C)[C@H]([C@H](OC(=O)c3ccccc3)[C@]3(O)C[C@H](OC(=O)[C@H](O)[C@@H](NC(=O)c4ccccc4)c4ccccc4)C(C)=C1C3(C)C)[C@]1(OC(C)=O)CO[C@@H]1C[C@@H]2O` [taxol], the “drug distribution within the cell (ratio Raman image at 1002 cm^−1)” value (breast tumor cell exposed to 0.3 mg/ml taxol solution for one hour, FIG. 5(b)) was “taxol entered the tumor cell from the top membrane and gradually penetrated into the center of the cell” and the “drug distribution at different depths of the cell (stack of ratio Raman images)” value (breast tumor cell treated with 0.3 mg/ml taxol solution for one hour, FIG. 7) was “More drug entered the cell from the middle layer (Z=6 μm)”.

Reference: US6939686B2, “Methodology of using raman imaging microscopy for evaluating drug action within living cells” (Southwest Research Institute, priority 2000, dated 2005)
